Peptide text beside a SMILES is read from it.
Experiments:
[1] = tested on: MCF-7 cells; experiment: BrdU incorporation (DNA synthesis), estradiol-stimulated MCF-7 cells; type: cell-based, human; details: 24 hrs
Procedure: (§1) DNA synthesis is assayed in single cells by a 6 h pulse with 100 μM (final concentration) BrdU (Boeheringer). Cells on coverslips are fixed, and incubated with diluted (1:1 in PBS) fluorescein-conjugated mouse anti-BrdU mAbs (clone BMC9318 from Boheringer Mannheim Co., IN), then washed three times with PBS. […] All coverslips are washed three times in PBS, inverted and mounted in Moviol (Calbiochem, CA) on glass slides. Slides are analyzed using an Axiophot fluorescent microscope (Zeiss).

[2] = tested on: LNCaP cells; experiment: BrdU incorporation (DNA synthesis), R1881-stimulated LNCaP cells; type: cell-based, human; details: for residual BrdU incorporation: R1881 alone 54%, untreated 20%
[3] = tested on: androgen receptor; experiment: ARE luciferase reporter gene transcription in LNCaP cells; type: cell-based, human
Procedure: LNCaP cells were transfected with a reporter gene encoding the luciferase gene under the control of an androgen responsive element (ARE 3416) (Castoria et al., 2003). Six hrs after transfection, cells were kept for further 24 hrs in the absence or in presence of 10 nM R1881 alone or with a 1000 fold excess of Casodex or with 1 nM SH3 binder peptide (SEQ.ID NO.1) or 1 nM shuffled sequence of peptide SEQ.ID NO.1 (SEQ.ID. NO.7). Luciferase activity was then assayed in cell lysates. Bar1: unstimulated cells; Bar 2: R1881 treated cells; Bar 3: cells treated with R1881 in the presence of Casodex (Cdx); Bar 4: cells treated with R1881 in the presence of the SH3 binder peptide (SH3); Bar 5: cells treated with R1881 in the presence of the shuffled sequence of peptide SEQ.ID NO.1 (Ss).
LNCaP cells, kept in 5% CO2 in air in RPMI 1640 medium (GIBCO) supplemented with phenol-red, 2 mM L-glutamine (GIBCO), penicillin (100 U/ml), gentamicin (50 μl/ml), insulin and 10% fetal calf serum, are transfected with a reporter gene engineered in a pSG5 expression vector with the luciferase gene under the control of an androgen responsive element (ARE3416) (Verrijdt et al., 2000). […]

[4] = molecular target: T1, AR association with Src (Homo sapiens, UniProt P12931); experiment: Androgen-stimulated AR association with Src, anti-Src co-immunoprecipitation in LNCaP cells; type: cell-based
T1 construct: Cell lysates are submitted to immuno-precipitation using mouse monoclonal anti-Src antibodies; endogenous in cells; host or cells: LNCaP
Procedure: Human prostate cancer LNCaP cells were left unstimulated or stimulated for 2 min with 10 nM R1881 alone or in the presence of 1000-fold excess of Casodex or 1 nM of the SH3-binder peptide or the shuffled sequence of peptide SEQ.ID NO.1 (SEQ.ID NO.7). Cell lysates were incubated with anti-Src antibodies, and the immunoprecipitated proteins resolved on SDS-PAGE and transferred onto nitrocellulose filters. Filters were then blotted with either anti-Src or anti-human AR antibodies to detect AR associated with Src. […] Lane 1: unstimulated cells; lane 2: R1881 treated cells; lane 3: cells treated with R1881 in the presence of Casodex (Cdx); lane 4: cells treated with R1881 in the presence of the SH3 binder peptide (SH3, SEQ.ID NO.1); lane 5: cells treated with R1881 in the presence of the shuffled sequence of peptide SEQ.ID NO.1 (Ss, SEQ.ID NO.7).
Cells are then stimulated with 10 nM R1881 alone or in the presence of a 1000-fold excess of the anti-androgen Casodex or 1 nM of the SEQ.ID NO.1 peptide or 1 nM of the shuffled sequence of peptide SEQ.ID NO.1 (SEQ.ID NO.7) for 2 min, and lysed. Cell lysates are submitted to immuno-precipitation using mouse monoclonal anti-Src antibodies (Clone 327, Oncogene Science, Manhasset, N.Y.). The immuno-precipitated proteins are resolved on a 12% SDS-polyacrylammide gel and thereafter transferred onto nitrocellulose filters. […]

[5] = molecular target: T2, ER association with Src (Homo sapiens, UniProt P12931); experiment: Estrogen-stimulated ER/AR association with Src, anti-Src co-immunoprecipitation in MCF-7 cells; type: cell-based
T2 construct: Cell lysates are submitted to immunoprecipitation using mouse monoclonal anti-Src antibodies; endogenous in cells; host or cells: MCF-7
Procedure: Human breast cancer MCF-7 cells were left unstimulated or stimulated for 2 min with 10 nM 17β estradiol alone or in the presence of a 1000 fold excess of ICI 182,780 or 1 nM of the SH3 binder peptide or the shuffled sequence of peptide SEQ.ID NO.1 (SEQ.ID NO.7). Cell lysates were incubated with anti-Src antibodies, immunoprecipitated proteins were resolved on SDS-PAGE and transferred onto nitrocellulose filters. Filters were then blotted with either anti-Src or anti-human AR antibodies to detect AR associated with Src.
Cells are suspended in 1 ml of lysis buffer: 50 mM Tris-HCl, pH 7.40, containing 5 mM MgCl2, 150 mM NaCl, 0.5% Triton X-100 and left under gentle shaking for 2 min, at 4° C. Suspensions are then centrifuged at about 800 g for 30 min and supernatant collected and used for immunoprecipitation.
To address this point mammary cancer derived MCF-7 cells are grown in 5% CO2 in air in DMEM medium (GIBCO) supplemented with phenol-red, 2 mM L-glutamine (GIBCO), penicillin (100 U/ml), gentamicin (50 μl/ml), hydrocortisone (3.75 ng/ml) insulin (0.2 U.I./ml) and 5% fetal calf serum. The cells are then kept in DMEM without phenol red and supplemented with glutamine, penicillin, gentamicin and insulin as above and containing 5% charcoal-stripped fetal calf serum for additional 4 days. […]

[6] = tested on: LNCaP cells; experiment: BrdU incorporation (DNA synthesis), EGF-stimulated LNCaP cells; type: cell-based, human; details: 24 hrs
Procedure: FIG. 1C. DNA synthesis inhibition of EGF-stimulated human prostate cancer cells by SH3 binder peptide modeled from AR (SEQ. ID NO.1). LNCaP cells were grown in phenol red-free medium added with charcoal-treated serum as previously described and treated for 24 hrs with 100 ng/ml EGF alone or in the presence of a 10 μM of the anti-estrogen ICI 182,780 or 1 nM of the AR-derived (SH3-binder) peptide (SEQ.ID NO.1) or the shuffled sequence of peptide SEQ.ID NO.1 (SEQ.ID NO.7). At the end of the growth factor treatment BrdU incorporation in the cells untreated (control) or treated with EGF alone (EGF) or in the presence of ICI 182,780 (ICI) or the SH3-binder (SH3) or the shuffled sequence of peptide SEQ.ID NO.1 (Ss) was assayed. Data are reported as percentage of cells incorporating BrdU.
(§2) The peptide SEQ.ID NO.1 is finally assayed for its ability to reduce or inhibit EGF induced DNA synthesis in human prostate cancer LNCaP (1C) and MCF-7 (1D) cells. The LNCaP and MCF-7 cells are cultured as described above, then seeded onto coverslips. Cells are then stimulated with 100 ng/ml of highly purified EGF (Boheringer, Calif.) in the absence or in presence of 1 nM peptide SEQ.ID NO.1.
as §1

[7] = tested on: MCF-7 cells; experiment: BrdU incorporation (DNA synthesis), EGF-stimulated MCF-7 cells; type: cell-based, human; details: 24 hrs
Procedure: FIG. 1D. […] MCF-7 cells were grown in phenol red-free medium added with charcoal-treated serum as previously described and treated for 24 hrs with 100 ng/ml EGF alone or in the presence of a 10 μM of the anti-estrogen ICI 182,780 or 1 nM of the AR-derived (SH3-binder) peptide or the shuffled sequence of peptide SEQ ID NO.1 (SEQ.ID. NO.7). At the end of the growth factor treatment, BrdU incorporation in the cells untreated (control) or treated with EGF alone (EGF) or in the presence of ICI 182,780 (ICI) or SH3-binder (SH3) or shuffled sequence of peptide SEQ.ID NO.1 (Ss) was assayed. Data are reported as percentage of cells incorporating BrdU.
as §2, §1

[8] = tested on: Cyclin D1; experiment: Androgen-induced cyclin D1 expression, western blot in MCF-7 and LNCaP cells; type: cell-based, human
Procedure: Inhibition of androgen-induced cyclin D1 expression by AR-derived Src-SH3 binder peptide (SEQ.ID NO.1). Quiescent MCF-7 and LNCaP cells were left untreated or treated for 8 hrs with 10 nM R1881 alone or in the presence of 5 μM PI3-kinase inhibitor LY294,002 or 1 nM AR-derived SH3 binder or the shuffled sequence of peptide SEQ.ID NO.1 (SEQ.ID. NO.7). Protein from cell lysates were resolved on SDS-PAGE, then transferred to nitrocellulose filters. […] Lanes 1: unstimulated cells; lanes 2: R1881 treated cells; lanes 3: cells treated with R1881 in the presence of LY294,002 (LY); lanes 4: cells treated with R1881 in the presence of AR-derived (SH3-binder) peptide (SH3); lane 5: cells treated with R1881 in the presence of the shuffled sequence of peptide SEQ.ID NO.1 (Ss).
To verify this possibility, SH3 binder peptide (SEQ.ID NO.1) is added to MCF-7 and LNCaP cells stimulated with the androgen. MCF-7 and LNCaP cells are routinely grown as described above. Cells are then kept for at least 4 days in red phenol-free medium supplemented as described above and added with dextran-coated charcoal treated fetal calf serum to minimize steroid concentration.

[9] = tested on: Cyclin D1; experiment: Estrogen-induced cyclin D1 expression, western blot in MCF-7 and LNCaP cells; type: cell-based, human
Procedure: Quiescent MCF-7 and LNCaP cells were left untreated or treated for 8 hrs with 10 nM 17β estradiol alone or in the presence of 5 μM PI3-Kinase inhibitor LY294,002 or 1 nM of the SH3 binder or the shuffled sequence of peptide SEQ.ID NO.1 (SEQ.ID NO.7). Protein from cell lysates were resolved on SDS-PAGE, then transferred to nitrocellulose filters. […] Lanes 1: unstimulated cells; lanes 2: estradiol treated cells; lanes 3: cells treated with estradiol in the presence of LY294,002 (LY); lane 4: cells treated with estradiol in the presence of SH3-binder peptide (SH3); lane 5: cells treated with estradiol in the presence of the shuffled sequence of peptide SEQ.ID NO.1 (Ss).
To test the effect of SH3 binder peptide (SEQ.ID NO.1) on estrogen stimulated Cyclin D1 expression, this peptide is added to LNCaP and MCF-7 cells stimulated with 10 nM 17β-estradiol (FIG. 3B). MCF-7 and LNCaP cells are routinely grown as reported above. Cells are then kept for at least 4 days in red phenol-free medium supplemented as described above and added with dextran-coated charcoal treated fetal calf serum to minimize steroid contamination.

[10] = tested on: MCF-7 cell xenografts; experiment: MCF-7 cell xenografts in nude male mice; details: peptide intraperitoneally on alternate days, MCF-7 xenograft mice; data not shown
[11] = tested on: LNCaP cell xenografts; experiment: LNCaP cell xenografts in nude male mice; details: peptide intraperitoneally on alternate days, LNCaP xenograft mice; data not shown
[12] = 1 nM peptide with 10 nM 17β estradiol
[13] = 1 nM peptide with 10 nM R1881, 24 hrs

## C[C@]12CC[C@@H]3c4ccc(O)cc4CC[C@H]3[C@@H]1CC[C@@H]2O [17β estradiol]
[1]; 10 nM 17β estradiol alone, untreated cells 8%, averaged from six assays
  BrdU incorporation rate: 61%

## CC(O)(CS(=O)(=O)c1ccc(F)cc1)C(=O)Nc1ccc(C#N)c(C(F)(F)F)c1 (stereo not shown) [Casodex, biclutamide]
[2]; 1000-fold excess with 10 nM R1881, 24 hrs
  residual BrdU incorporation: 21%
[3]; 1000 fold excess with 10 nM R1881, 24 hrs
  androgen induced transcription of reporter gene: completely inhibits
[4]; 1000-fold excess with 10 nM R1881, 2 min
  hormone stimulated Src-AR association (AR co-immunoprecipitated by anti-Src antibodies): abolished

## C[C@]12CC[C@@H]3c4ccc(O)cc4C[C@@H](CCCCCCCCC[S+]([O-])CCCC(F)(F)C(F)(F)F)[C@H]3[C@@H]1CC[C@@H]2O (stereo partly shown) [ICI 182,780]
[5]; 1000-fold excess with 10 nM 17β estradiol
  association between ER and Src (co-immunoprecipitation by anti-Src antibodies): abolished
[6]; 10 μM with 100 ng/ml EGF, EGF alone 21%, untreated 8%
  residual BrdU incorporation: 7%
[1]; 1000-fold excess with 10 nM 17β estradiol, E2 alone 61%, untreated 8%
  residual BrdU incorporation: 7%
[7]; 10 μM with 100 ng/ml EGF, EGF alone 36%, untreated 6%
  residual BrdU incorporation: 9%

## O=c1cc(N2CCOCC2)oc2c(-c3ccccc3)cccc12 [LY 294,002]
[8]; 5 μM with 10 nM R1881, MCF-7 and LNCaP
  hormone stimulated cyclin expression: abolishes
[9]; 5 μM with 10 nM 17β estradiol
  hormone stimulated cyclin expression: abolishes

## CC(C)(C)n1nc(-c2ccc(Cl)cc2)c2c(N)ncnc21 [PP2]
[8]; with 10 nM R1881, concentration not given, data not shown
  hormone stimulated cyclin expression: abolishes

## C[C@]1(O)CC[C@H]2[C@@H]3CCC4=CC(=O)CCC4=C3C=C[C@@]21C [R1881]
[2]; 10 nM R1881 alone, 24 hrs, untreated cells 20%, averaged from six assays
  BrdU incorporation rate: 54%

## CC[C@H](C)[C@H](NC(=O)[C@H](CCCNC(=N)N)NC(=O)[C@H](C)NC(=O)[C@H](Cc1c[nH]cn1)NC(=O)[C@@H]1CCCN1C(=O)[C@H](Cc1c[nH]cn1)NC(=O)[C@@H]1CCCN1C(=O)[C@@H]1CCCN1C(=O)[C@@H]1CCCN1C(C)=O)C(=O)N[C@@H](CCCCN)C(N)=O [SEQ.ID NO.1, Ac-Pro-Pro-Pro-His-Pro-His-Ala-Arg-Ile-Lys-NH2] (Ac-PPPHPHARIK-NH2)
[10]
  weight of mice vs vehicle: No difference
[11]
  weight of mice vs vehicle: No difference

## Ac-His-Pro-Lys-Pro-Ala-Arg-Ile-Pro-His-Pro-NH2 (Ac-HPKPARIPHP-NH2) [SEQ.ID NO.7]
[5]; [12]
  hormone stimulated receptor-Src association (co-immunoprecipitation by anti-Src antibodies): only slightly affected
[8]; 1 nM peptide with 10 nM R1881, 6 hrs, MCF-7 and LNCaP
  Cyclin D induction by R1881: only partially reduces
[6]; 1 nM peptide with 100 ng/ml EGF, EGF alone 21%, untreated 8%
  BrdU incorporation (residual): 15%
[1]; [12]
  effect on estrogen-induced DNA synthesis: not significant effect
[2]; [13]
  residual BrdU incorporation: 48%
[9]; 1 nM peptide with 10 nM 17β estradiol, 6 hrs
  Cyclin D induction by estrogen: a little effect
[3]; [13]
  transcriptional activity of AR (luciferase reporter): neither the SH3 peptide nor the shuffled sequence of peptide SEQ. ID NO.1 affect
[4]; 1 nM peptide with 10 nM R1881, 2 min
  hormone stimulated Src-AR association (AR co-immunoprecipitated by anti-Src antibodies): only slightly affected
[7]; 1 nM peptide with 100 ng/ml EGF, EGF alone 36%, untreated 6%
  BrdU incorporation (residual): 48%

## EGF: highly purified EGF, growth factor used as stimulus
[6]; 100 ng/ml EGF alone, untreated cells 8%
  BrdU incorporation: 21%
[7]; 100 ng/ml EGF alone, untreated cells 6%
  BrdU incorporation: 36%

Source: US9919023B2, “Anti-androgen peptides and uses thereof in cancer therapy” (Cancer Research Technology Limited, priority 2007, dated 2018)
